Assay results taken from ChEMBL document CHEMBL1201862, “PubChem BioAssay data set” (2004).
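A five-concentration, 48-hour dose response in 96-well plates underlies each endpoint, interpolated linearly between surrounding concentrations. GI50 is the concentration that inhibits growth by half.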 Active and inactive are the calls of the source. Cut-off read from the data, not from the text of the source: active = GI50 up to about 1.1 µM and inactive = higher.

What was measured:
Test in all cases: DTP human tumour cell line panel, 48 h
786-0 = test system: 786-0
A498 = test system: A498
A549 = test system: A549
ACHN = test system: ACHN
BT-549 = test system: BT-549
CAKI-1 = test system: CAKI-1
CCRF-CEM = test system: CCRF-CEM
COLO 205 = test system: COLO 205
DU-145 = test system: DU-145
EKVX = test system: EKVX
HCC 2998 = test system: HCC 2998
HCT-116 = test system: HCT-116
HCT-15 = test system: HCT-15
HL-60 = test system: HL-60
HOP-62 = test system: HOP-62
HOP-92 = test system: HOP-92
HT-29 = test system: HT-29
Hs-578T = test system: Hs-578T
IGROV-1 = test system: IGROV-1
K562 = test system: K562
KM12 = test system: KM12
LOX IMVI = test system: LOX IMVI
M14 = test system: M14
MCF7 = test system: MCF7
MDA-MB-231 = test system: MDA-MB-231
MDA-MB-435 = test system: MDA-MB-435
MDA-N = test system: MDA-N
MOLT-4 = test system: MOLT-4
Malme-3M = test system: Malme-3M
NCI-H226 = test system: NCI-H226
NCI-H23 = test system: NCI-H23
NCI-H460 = test system: NCI-H460
NCI-H522 = test system: NCI-H522
NCI/ADR-RES = test system: NCI/ADR-RES
OVCAR-3 = test system: OVCAR-3
OVCAR-4 = test system: OVCAR-4
OVCAR-5 = test system: OVCAR-5
OVCAR-8 = test system: OVCAR-8
PC-3 = test system: PC-3
RPMI-8226 = test system: RPMI-8226
RXF 393 = test system: RXF 393
SF-268 = test system: SF-268
SF-295 = test system: SF-295
SF-539 = test system: SF-539
SK-MEL-28 = test system: SK-MEL-28
SK-MEL-2 = test system: SK-MEL-2
SK-MEL-5 = test system: SK-MEL-5
SK-OV-3 = test system: SK-OV-3
SN12C = test system: SN12C
SNB-19 = test system: SNB-19
SNB-75 = test system: SNB-75
SR = test system: SR
SW-620 = test system: SW-620
T47D = test system: T47D
TK-10 = test system: TK-10
U-251 = test system: U-251
UACC-257 = test system: UACC-257
UACC-62 = test system: UACC-62
UO-31 = test system: UO-31

Measured: GI50

O=C(O)c1ccc(C(=O)c2ccccc2)c(C(=O)O)c1
> 100 µM: HCT-15
inactive: 786-0 > 100 µM | A498 > 100 µM | A549 > 100 µM | ACHN > 100 µM | BT-549 > 100 µM | CAKI-1 > 100 µM | CCRF-CEM > 100 µM | COLO 205 > 100 µM | DU-145 > 100 µM | EKVX > 100 µM | HCC 2998 > 100 µM | HCT-116 > 100 µM | HL-60 > 100 µM | HOP-62 > 100 µM | HOP-92 > 100 µM | HT-29 > 100 µM | Hs-578T > 100 µM | IGROV-1 > 100 µM | K562 > 100 µM | KM12 > 100 µM | LOX IMVI > 100 µM | M14 > 100 µM | MCF7 > 100 µM | MDA-MB-231 > 100 µM | MDA-MB-435 > 100 µM | MDA-N > 100 µM | MOLT-4 > 100 µM | Malme-3M > 100 µM | NCI-H226 > 100 µM | NCI-H23 > 100 µM | NCI-H460 > 100 µM | NCI-H522 > 100 µM | NCI/ADR-RES > 100 µM | OVCAR-3 > 100 µM | OVCAR-4 > 100 µM | OVCAR-5 > 100 µM | OVCAR-8 > 100 µM | PC-3 > 100 µM | RPMI-8226 > 100 µM | RXF 393 > 100 µM | SF-268 > 100 µM | SF-295 > 100 µM | SF-539 > 100 µM | SK-MEL-28 > 100 µM | SK-MEL-2 > 100 µM | SK-MEL-5 > 100 µM | SK-OV-3 > 100 µM | SN12C > 100 µM | SNB-19 > 100 µM | SNB-75 > 100 µM | SR > 100 µM | SW-620 > 100 µM | T47D > 100 µM | TK-10 > 100 µM | U-251 > 100 µM | UACC-257 > 100 µM | UACC-62 > 100 µM | UO-31 > 100 µM

CC(=O)NC1C(OCc2ccccc2)OC(CO)C(O)C1OC(C)C(=O)N[C@@H](C)C(=O)N[C@H](CCC(=O)NCCNCCNc1c2ccccc2nc2cccc([N+](=O)[O-])c12)C(N)=O (stereo partly specified)
inactive: NCI/ADR-RES 1.73 µM
active: 786-0 0.0601 µM | A498 0.137 µM | A549 0.0244 µM | ACHN 0.0557 µM | BT-549 0.0698 µM | CAKI-1 0.0634 µM | CCRF-CEM 0.201 µM | COLO 205 < 0.0112 µM | DU-145 0.0241 µM | EKVX 0.199 µM | HCC 2998 0.0152 µM | HCT-116 0.0214 µM | HL-60 0.308 µM | HOP-62 0.192 µM | HOP-92 0.0244 µM | HT-29 0.0369 µM | Hs-578T 0.356 µM | IGROV-1 0.0385 µM | K562 0.0311 µM | KM12 0.0783 µM | LOX IMVI 0.136 µM | M14 0.0993 µM | MCF7 < 0.0195 µM | MDA-MB-231 0.177 µM | MDA-MB-435 0.0389 µM | MDA-N 0.0708 µM | MOLT-4 0.0935 µM | Malme-3M 0.043 µM | NCI-H226 0.149 µM | NCI-H23 0.022 µM | NCI-H460 < 0.01 µM | NCI-H522 < 0.01 µM | OVCAR-3 0.226 µM | OVCAR-4 0.0228 µM | OVCAR-5 0.336 µM | OVCAR-8 0.11 µM | PC-3 0.0321 µM | RPMI-8226 0.0698 µM | RXF 393 0.0169 µM | SF-268 0.164 µM | SF-295 0.207 µM | SF-539 0.0982 µM | SK-MEL-28 0.245 µM | SK-MEL-2 0.048 µM | SK-MEL-5 0.0159 µM | SK-OV-3 0.348 µM | SN12C 0.104 µM | SNB-19 0.29 µM | SNB-75 0.205 µM | SR 0.0794 µM | SW-620 0.0266 µM | T47D 0.0461 µM | TK-10 0.135 µM | U-251 0.0944 µM | UACC-257 0.108 µM | UACC-62 0.0659 µM | UO-31 0.24 µM
0.153 µM: HCT-15

O=C(/C=C/c1ccccc1O)CC(=O)/C=C/c1ccccc1O
3.64 µM: HCT-15
inactive: 786-0 4.21 µM | A498 23.3 µM | A549 7.14 µM | ACHN 5.92 µM | BT-549 5.62 µM | CAKI-1 17.9 µM | CCRF-CEM 3.1 µM | COLO 205 3.95 µM | DU-145 14.5 µM | EKVX 13.3 µM | HCC 2998 10.5 µM | HCT-116 2.38 µM | HL-60 3.24 µM | HOP-62 11.8 µM | HOP-92 5.81 µM | HT-29 1.84 µM | Hs-578T 8.17 µM | IGROV-1 5.73 µM | K562 3.82 µM | KM12 6.4 µM | LOX IMVI 1.32 µM | M14 12.8 µM | MCF7 4.14 µM | MDA-MB-231 > 10 µM | MDA-MB-435 4.38 µM | MDA-N 2.97 µM | MOLT-4 3.78 µM | Malme-3M 11.7 µM | NCI-H226 > 10 µM | NCI-H23 2.81 µM | NCI-H460 7.45 µM | NCI-H522 3.72 µM | NCI/ADR-RES 5.01 µM | OVCAR-3 3.82 µM | OVCAR-4 15.1 µM | OVCAR-5 > 10 µM | OVCAR-8 4.41 µM | PC-3 5.28 µM | RPMI-8226 2.93 µM | RXF 393 3.25 µM | SF-268 > 10 µM | SF-295 6.53 µM | SF-539 5.9 µM | SK-MEL-28 12.8 µM | SK-MEL-2 8.79 µM | SK-MEL-5 5.32 µM | SK-OV-3 > 10 µM | SN12C 5.38 µM | SNB-19 9.84 µM | SNB-75 > 46.2 µM | SR 2.67 µM | SW-620 4.51 µM | T47D 5.45 µM | TK-10 23.7 µM | U-251 4.26 µM | UACC-257 10.3 µM | UACC-62 4.93 µM | UO-31 4.73 µM

C[C@H](CCc1nc(C#N)c(N)o1)[C@H]1CC[C@H]2[C@@H]3CCC4C[C@@H](O)CC[C@]4(C)[C@H]3C[C@@H](O)[C@]12C (stereo partly specified)
active: CCRF-CEM 0.143 µM | HL-60 0.475 µM | OVCAR-4 1.03 µM
inactive: 786-0 10.8 µM | A498 18.7 µM | A549 5.89 µM | ACHN 14.9 µM | BT-549 2.65 µM | CAKI-1 14.4 µM | COLO 205 12.7 µM | DU-145 14.5 µM | EKVX 12.9 µM | HCC 2998 16.6 µM | HCT-116 12.7 µM | HOP-62 18.9 µM | HOP-92 14.4 µM | HT-29 13.5 µM | Hs-578T 8.55 µM | IGROV-1 6.24 µM | K562 4.46 µM | KM12 10.7 µM | LOX IMVI 7.71 µM | M14 15.4 µM | MCF7 14.6 µM | MDA-MB-231 17.1 µM | MDA-MB-435 15.1 µM | MDA-N 13.9 µM | MOLT-4 4.02 µM | Malme-3M 14.4 µM | NCI-H226 8.38 µM | NCI-H23 17.3 µM | NCI-H460 14.6 µM | NCI-H522 3.65 µM | NCI/ADR-RES 8.49 µM | OVCAR-3 11.9 µM | OVCAR-5 18.6 µM | OVCAR-8 4.56 µM | PC-3 4.33 µM | RPMI-8226 1.73 µM | RXF 393 9.27 µM | SF-268 11.3 µM | SF-295 14.4 µM | SF-539 10.2 µM | SK-MEL-28 13.1 µM | SK-MEL-2 16.3 µM | SK-MEL-5 12.6 µM | SK-OV-3 14.3 µM | SN12C 10.7 µM | SNB-19 16.4 µM | SNB-75 10.3 µM | SR 3.05 µM | SW-620 12.6 µM | T47D 14.5 µM | TK-10 14.7 µM | U-251 12.5 µM | UACC-257 7.73 µM | UACC-62 12.1 µM | UO-31 4.53 µM
14.7 µM: HCT-15
